Results reported in patent US20220088195A1, “Prevention or mitigation of T-cell bispecific antibody-related adverse effects” (Hoffmann-La Roche Inc., priority 2020, published 2022).
“Also recorded” adds a separate entry of the source.

Key:
[1] = tested on: IFN-γ, IL-2 and TNF-α release; test: Cytokine levels in supernatants of the reversibility assay (Luminex); format: cell-based, human
Experimental: FIG. 18. […] Cytokines ((A) IFN-γ, (B) IL-2, (C) TNF-α) were measured with a multiplex cytokine kit (Luminex technology). 1 donor.
FIG. 20. Cytokine levels in the supernatants of the assay after first stimulation in the absence of 25 nM dasatinib and after second stimulation in the presence of 25 nM dasatinib, in the assay of FIG. 16 (“ON/OFF”). Cytokines ((A) IFN-γ, (B) IL-2, (C) TNF-α) were measured with a multiplex cytokine kit (Luminex technology). 1 donor.
FIG. 22. Cytokine release. Supernatants were collected after first and second stimulation in the assay of FIG. 16 and cytokines ((A) TNF-α, (B) IFN-γ, (C) IL-2) measured using a multiplex cytokine kit (Luminex).
We then verified if dasatinib's effect is reversible upon its removal. Therefore we set-up a killing assay with two and three stimulations in the presence and absence of dasatinib and followed the killing kinetics using an Incucyte® system (FIG. 16). After each stimulation, effector cells were washed and re-stimulated on fresh MKN45 NLR target cells with 1 nM CEA TCB in the presence and absence of dasatinib allowing to mimic OFF/ON switch and ON/OFF/ON switch.
Lastly, we evaluated if the effect of dasatinib was reversible on activated T cells. Consequently, we supplemented the media with 25 nM dasatinib upon the second stimulation with 1 nM CEA-TCB to prevent killing from activated T cells and then removed the dasatinib upon third stimulation with 1 nM CEA-TCB to verify if killing would be restored.
We were curious to see if low doses of dasatinib could prevent cytokine release while minimally affecting TCB-efficacy upon first stimulation. In killing assays as described in FIG. 16, the cytokine levels upon first treatment with 1 nM CEA-TCB in the presence of 6.25 nM and 12.5 nM dasatinib and upon second treatment with 1 nM CEA-TCB in the absence of dasatinib were measured in the supernatants.

[2] = blood of mice; cited from earlier work
[3] = tested on: IL-2, IFN-γ, TNF-α, IL-6, GM-CSF and IL-8 release; test: CD19-TCB-induced cytokine release in the SUDLH-8 assay (Luminex); format: cell-based, human; settings: 100 nM dasatinib, monohydrate
Experimental: The levels of IL-2 (A), IFN-γ (B), TNF-α (C), IL-6 (D), GM-CSF (E) and IL-8 (F) were measured by Luminex in the supernatant of the assay described in FIG. 26.
FIG. 31. […] The levels of IFN-γ (A), TNF-α (B), IL-2 (C), IL-6 (D), GM-CSF (E) and IL-8 (F) were measured by Luminex in the supernatant of the assay described in FIG. 26.
The killing of CTV labelled SUDLH-8 cells was measured by flow cytometry using a Live/Dead Near Infra Red (NIR) dye. […] The expression of CD69 and CD25 were measured on CD4+ (FIG. 28) and CD8+(FIG. 29) T cells by flow cytometry as a readout for T cell activation. […] Lastly, the cytokine levels were analyzed in the supernatants of the assay by Luminex to evaluate the effect of dasatinib on CD19-TCB-induced cytokine release (FIGS. 30 and 31).

[4] = tested on: A375 NucLight Red (NLR) target cells; test: Incucyte real time killing assay, PBMCs + RMF peptide-pulsed A375 NLR target cells + HLA-A2 WT1-TCB with escalating dasatinib; format: cell-based, human
Experimental: FIG. 1. Real time killing of red fluorescent A375 cells loaded with RMF peptides by 10 nM HLA-A2 WT-1-TCB (A) and of red fluorescent MKN45 cells by 1 nM CEA-TCB (B) in the presence of different dasatinib concentrations ranging from 100 nM to 0 nM. (A) A375 NucLight Red (NLR) target cells were pulsed with RMF peptides (2 hours before killing assay) and co-cultured with HLA-A2 WT1-TCB, dasatinib (dasa) and PBMCs, effector to target ratio (E:T)=10:1 (E:T=50 000 PBMCs:5000 target cells). Killing was followed by Incucyte® (1 scan every 3 hours, zoom 10×, phase and red 400 ms acquisition time). % Killing was measured by normalizing total red area with values at t=0 hour and target cells+PBMCs+dasatinib (without TCB) control wells for each time point. Means of technical replicates+/−SEM for 1 donor. (B) MKN45 NLR target cells were co-cultured with CEA TCB, dasatinib and PBMCs, E:T=10:1 (E:T=50 000 PBMCs:5000 target cells). Killing was followed by Incucyte (1 scan every 3 hours, zoom 10×, phase and red 400 ms acquisition time). % Killing was measured by normalizing total red area with values at t=0 hour and target cells+PBMCs+dasatinib control wells for each time point. Means of technical replicates+/−SEM for 1 donor.
To assess the inhibitory effect of dasatinib on TCB-mediated target-cell killing, we conducted killing assays using peripheral blood mononuclear cells (PBMCs), NucLight Red (NLR) target-cells and respective TCB in media supplemented with escalating concentrations of dasatinib. The Incucyte® system (Essen Bioscience) was used to capture the loss of red fluorescent protein signal over time as a readout of target-cell killing.

In the case of `Cc1nc(Nc2ncc(C(=O)Nc3c(C)cccc3Cl)s2)cc(N2CCN(CCO)CC2)n1` [dasatinib, N-(2-chloro-6-methylphenyl)-2-[[6-[4-(2-hydroxyethyl)-1-piperazinyl]-2-methyl-4-pyrimidinyl]amino]-5-thiazole carboxamide monohydrate], the “release of IFN-γ, IL-2 and TNF-α during first stimulation” value ([1]; 6.25 nM and 12.5 nM dasatinib, 1 nM CEA-TCB) is reported as “lowered the release”, the “release of IFN-γ, IL-2 and TNF-α (ON/OFF)” value ([1]; 25 nM dasatinib upon second stimulation, 1 nM CEA-TCB) is reported as “prevented the release” and the “T-cell derived cytokine release (IFN-γ, IL-2, TNF-α) after first stimulation” value ([1]; 25 nM dasatinib, 1 nM CEA-TCB) is reported as “full inhibition”. For the same molecule, the “levels of TNF-α, IL-2 and IFN-γ during second stimulation” value ([1]; dasatinib (6.25 nM, 12.5 nM) removed) was “remained low”, the “release of IFN-γ, IL-2 and TNF-α after removal of dasatinib and restimulation” value ([1]; removal of 25 nM dasatinib, restimulation with 1 nM CEA-TCB) was “T cell functionality was restored upon dasatinib removal” and the half-life [2] was “around 6 hrs”. The “release of IL-2, IFN-γ, TNF-α, IL-6, GM-CSF and IL-8” value [3] was “prevents CD19-TCB-induced cytokine release; also recorded: prevented the release”, the inhibition at 0.0125 µM ([4]; Homo sapiens, A-375, 12.5 nM dasatinib, 10 nM HLA-A2 WT-1-TCB, read-out: inhibition of target-cell killing) was 78.2% and the inhibition at 0.05 µM ([4]; Homo sapiens, A-375, 50 nM (24.4 ng/mL) dasatinib, 10 nM HLA-A2 WT1-TCB, read-out: inhibition of target-cell killing) was 89%. The inhibition at 0.1 µM ([4]; Homo sapiens, A-375, 100 nM (48.8 ng/mL) dasatinib, 10 nM HLA-A2 WT1-TCB, read-out: inhibition of target-cell killing) was 86.5% and the inhibition of killing ([4]; dasatinib concentrations below 12.5 nM, 10 nM HLA-A2 WT-1-TCB) was “only partially inhibited killing”.
